This is an account of results in ChEMBL document CHEMBL1201862, “PubChem BioAssay data set” (2004).

Holding throughout (test): NCI anticancer screen, dose series, 48 h
Test [1] has as its system TK-10.
Test [2] has as its system ACHN.
In test [3] the test system is SNB-75.
Test [4] relates to UACC-62.
Test [5] concerns A549.
The subject of test [6] is KM12.
Test [7] deals with RXF 393.
Test [8] relates to UACC-257.
Test [9] concerns NCI-H460.
For test [10], the system named is HOP-62.
Test [11] has as its system SR.
In test [12] the test system is A498.
The subject of test [13] is LOX IMVI.
For test [14], the system named is Malme-3M.
Test [15] concerns NCI-H23.
The test system of test [16] is HCT-15.
The test system of test [17] is OVCAR-5.
The subject of test [18] is SK-OV-3.
In test [19] the test system is MDA-MB-435.

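All cell lines were grown in 96-well plates and treated with compound for 48 hours. GI50 marks 50% less growth.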 Activity calls are given as the source filed them. Rule as the data show it: active = GI50 up to about 1.1 µM and inactive = higher.

For the compound `Cc1ccc2[nH]c(=O)c(C(C#N)c3ccccc3)nc2c1` (configuration not stated), the GI50 in test [1] was > 100 µM (inactive); in [2], 50.9 µM (inactive); in test [3], 30.5 µM (inactive); in [4] it was 26.5 µM (inactive); in [5], 35.5 µM (inactive); in [6] it was 32 µM (inactive). Besides, the GI50 in test [7] is 23 µM (inactive); in test [8], 59.8 µM (inactive); in [9], 72.3 µM (inactive); in test [10] it was > 100 µM (inactive); in test [11] it was 71.3 µM (inactive); in test [12], > 100 µM (inactive). Further, the GI50 is 34.4 µM (inactive) in [13]; 45.2 µM (inactive) in test [14]; 60.8 µM (inactive) in [15]; 31.4 µM in test [16]; 55.3 µM (inactive) in test [17]; 50.7 µM (inactive) in test [18].

For `COC(=O)C1=C(O)c2cc(OC)c(OC)c(OC)c2C(c2ccc3c(c2)OCO3)[C@@H]1C(=O)OC` (some centres not stated), the GI50 in test [1] is 7.18 µM (inactive); in [2], 4.74 µM (inactive); in [3] it was 4.07 µM (inactive); in [4] it was 1.53 µM (inactive); in test [5], 4.68 µM (inactive); in test [6] it was 2.94 µM (inactive). Besides, the GI50 in [7] was 2.29 µM (inactive); in test [8], 5.81 µM (inactive); in test [9], 5.47 µM (inactive); in [10], 5.53 µM (inactive); in test [11] it was 3.66 µM (inactive); in test [12], 3.82 µM (inactive). Further, the GI50 is 4.43 µM (inactive) in test [13]; 3.44 µM (inactive) in test [14]; 7.03 µM (inactive) in test [15]; 7.1 µM in test [16]; > 100 µM (inactive) in test [17]; 3.44 µM (inactive) in test [18].

As to `CC(=O)c1cccc(NC(=O)C(=O)C(C2OC(=O)c3ccccc32)[N+](=O)[O-])c1` (configuration not stated), the GI50 in test [1], in [2], in [3], in [4], in test [5] and in test [6] was > 100 µM (inactive) in each case. Also, the GI50 in [7], in test [8], in [9], in test [10], in test [11] and in test [12] was > 100 µM (inactive) in each case. For the same compound, the GI50 in test [13] was > 100 µM (inactive); in test [14], > 100 µM (inactive); in test [15], > 100 µM (inactive); in test [16], more than 100 µM; in test [17], > 100 µM (inactive); in test [18], > 100 µM (inactive).

On to `Cc1[nH]c2ccccc2c1C1Cc2ccccc2N1C(=O)/C=C/C(=O)O` (configuration not stated), for which the GI50 in test [1], in test [2], in [3], in test [4], in test [5] and in test [6] was > 100 µM (inactive) in each case. Further, the GI50 in [7] is > 100 µM (inactive); in test [8] it was > 100 µM (inactive); in test [9], 20 µM (inactive); in test [10], > 100 µM (inactive); in test [11], > 100 µM (inactive); in test [12], > 100 µM (inactive). Also, the GI50 in test [13] is > 100 µM (inactive); in test [14] it was > 100 µM (inactive); in test [15], > 100 µM (inactive); in test [16] it was 16.1 µM; in [17], > 100 µM (inactive); in test [18], > 100 µM (inactive).

As for `CC(C)(C)C1=C(Br)C(OC(=O)C(F)(F)F)(C(C)(C)C)OP1(=O)c1ccccc1` (configuration not stated), the GI50 in [1] was 79.3 µM (inactive); in test [2], 32.7 µM (inactive); in test [3], 33.4 µM (inactive); in test [4] it was 28.8 µM (inactive); in test [5], 25.6 µM (inactive); in [6], 63 µM (inactive). The GI50 was 72.9 µM (inactive) in test [8]; 35.5 µM (inactive) in test [9]; 25.9 µM (inactive) in test [10]; 27.8 µM (inactive) in [12]; 45.8 µM (inactive) in [13]; 65 µM (inactive) in [14]. For the same compound, the GI50 in test [15] was 33.7 µM (inactive); in test [19], 53.3 µM (inactive); in [16] it was 31.5 µM; in [17], > 100 µM (inactive); in test [18] it was 39.1 µM (inactive).

For `CCN(CC)CCCC(C)NC(=O)c1ccc2c(c1)C(=O)c1ccccc1C2=O` (configuration not stated), the GI50 in [1] is 24.2 µM (inactive); in test [2] it was 18.1 µM (inactive); in test [3], 48.2 µM (inactive); in test [4] it was 20.5 µM (inactive); in test [5], 21.7 µM (inactive); in test [6], 15.4 µM (inactive). The GI50 is 19.7 µM (inactive) in [7]; 11.9 µM (inactive) in test [8]; 16.4 µM (inactive) in test [9]; 27.2 µM (inactive) in test [10]; 20.7 µM (inactive) in test [11]; 20.6 µM (inactive) in test [12]. For the same compound, the GI50 is 15.9 µM (inactive) in test [13]; 12.9 µM (inactive) in test [14]; 15.4 µM (inactive) in test [15]; 17.9 µM in [16]; 18.9 µM (inactive) in [17]; 40.1 µM (inactive) in [18].

For the compound `[N-]=[N+]=C1CNC(=O)NC1=O`, the GI50 in test [1] was > 100 µM (inactive); in [2] it was 69.3 µM (inactive); in test [3] it was 13.5 µM (inactive); in test [4], > 100 µM (inactive); in test [5], > 100 µM (inactive); in [6] it was > 100 µM (inactive). In addition, the GI50 was > 100 µM (inactive) in test [7]; > 100 µM (inactive) in test [8]; > 100 µM (inactive) in [9]; > 100 µM (inactive) in [10]; 60.1 µM (inactive) in test [13]; > 100 µM (inactive) in [14]. The GI50 in test [15] was > 100 µM (inactive); in test [19], 95.7 µM (inactive); in test [16], more than 100 µM; in test [17], > 100 µM (inactive); in test [18], > 100 µM (inactive).

With `CCOC(=O)NC(=O)c1cn(CCN2CCN(C(=O)NCCCCCCNC(=O)N3CCN(CCn4cc(C(=O)NC(=O)OCC)c(=O)n(CCN(CC)CC)c4=O)CC3)CC2)c(=O)n(CCC(CC)CC)c1=O`, the GI50 in test [1], in [2], in test [3], in test [4], in test [5] and in [6] was > 100 µM (inactive) each time. The GI50 in test [7], in test [8], in test [9], in test [10], in [11] and in [12] was > 100 µM (inactive) throughout. The GI50 in test [13] is > 100 µM (inactive); in test [14], > 100 µM (inactive); in [15], > 100 µM (inactive); in [16], more than 100 µM; in test [17], > 100 µM (inactive); in test [18], > 100 µM (inactive).
